Experiments:
Format in all cases: cell-based, human
MCF-7 mammospheres = test: Mammosphere formation; details: for Dose to block/inhibit mammosphere formation, fold lower than for monolayer growth: MCF-7
Description: Adherent cells were gently trypsinized, (0.05% trypsin/EDTA) washed twice in PBS and filtered through a […] cell sieve to obtain a single cell suspensions. Cells were diluted to a concentration of 10,000 cell/ml in serum-free phenol-red free MEBM (MEGM Bulletkit, Lonza) supplemented with 5 μg/ml bovine insulin, 20 ng/ml recombinant epidermal growth factor, 20 ng/ml basic fibroblast growth factor (Gibco), 1×B27 supplement, 0.5 μg/ml hydrocortisone (MEGM Bulletkit, Lonza). For MDA-MB-231 mammosphere cultures serum-free phenol red-free CnT-27 medium with growth additives (CellnTEC Advanced cell systems, Bern, Switzerland) was used as previously described. 0.1 ml was seeded per well of a Ultralow attachment 96 well plates. The following day the indicated doses of GR-24 (ppm) or vehicle alone (0.6% acetone f/c) were added. Media was replenished every 3-4 days. Self-renewal capacity of the mammospheres was determined by re-plating and producing further generations of mammospheres. Secondary mammospheres were cultivated by dissociation (trypsinization with gently vortexing) of 10-14 day old primary mammospheres. Single cell suspensions were obtained as described above.
Given the similar effects the other strigolactone analogs had on breast cancer cell line growth compared to GR-24, we anticipated that the strigolactone analogs would also have similar effects on MCF-7 primary mammosphere formation (FIG. 10): MCF-7 cells were seeded in MEBM media into low attachment, 96 well plates in duplicate at 3000 cells per well. The same day the indicated doses of strigolactone analogs were added. After 7 days representative images were taken. […] Like GR-24, the doses required to inhibit mammosphere formation are lower than that required to inhibit proliferation in monolayer cultures (5 fold lower; ST-362 and MEB-55, 3 fold lower; ST-357). To determine if the sensitivity to strigolactone analogs treatments was specific to mammosphere formation or whether it extended to the integrity and survival of mature mammospheres, MCF-7 mammospheres were grown in the absence of strigolactone analogs and after 7 days (or once mammospheres had reached a mean diameter of over […]), strigolactone analogs were added to the growth media (FIG. 10) at the indicated doses. MCF-7 cells were seeded in MEBM media into low attachment, 96 well plates in duplicate at 3000 cells per well and primary mammospheres left to grow for 7 days. At which time the indicated doses of strigolactone analogs were added to the media. FIG. 11A is a representative image of mammospheres treated with 5 ppm concentrations, showing dissociation after 2 days of exposure to strigolactone analogs. […] Following […] treatment, mammospheres were monitored visually after 24 and 48 hours. No changes were observed following 24 hours of strigolactone analogs treatment. […] At 5 ppm concentrations EG-5, EG-9C, ST-357, ST-362 and MEB-55 reduce mammosphere numbers from 86.7+6.8 (vehicle control) to 23+5, 38+6.2, 6+2, 8.3+3.5 and 9.3+1.5%, respectively. At 2.5 ppm concentrations, mammosphere numbers were reduced to 35+6.9 (EG-5), 52+12.3 (EG-9C), 22+8.5 (ST-357), 6+1.7 (ST-362) and 20.7+8.6 (MEB-55). […] XTT viability assays were also carried out on dissociated mammospheres. At concentrations of 5 ppm, EG-5, ST-362 and MEB-55 reduced viability to 3.7+0.5, 25.5+8.8 and 4.6+1.1% respectively.

MDA-MB-231 = test: Cell cycle analysis (propidium iodide, flow cytometry); details: 48 hours
Description: (§1) Adherent cells were trypsinyzed, washed twice with PBS and filtered through a […] cell sieve. DNA content was assessed by flow cytometry. Cells were seeded at densities of 1.5×10^5 cells (MDA-MB-231, MDA-MB-436), or 4×10^5 cells (MCF-7 and MCF10A), or 2×10^5 cells (SW480, HT-29), or 5×10^5 cells (HCT116), per well in DMEM with 10% FBS in 6-well plate culture dishes. […] After 48 hours, cells were washed twice with PBS (pH 7.4), centrifuged at 360 g for 10 minutes at 4° C., and fixed in chilled ethanol (70%; v/v in PBS) with gentle vortex mixing. To determine their DNA contents, the cells were stained with 40 μg/ml propidium iodide (hereinafter PI) and analyzed using a FACSCalibur flow cytometer and CellQuest analysis software (Becton Dickinson, San Jose, Calif.). Where phosphoHistone-H3 staining was carried out, cells were incubated with polyclonal antibody against phosphoHistone H3 and then with secondary Goat anti-rabbit IgG-conjugated to FITC prior to PI staining.

BJ fibroblast = test: as above; details: 48 hours
Description: as §1

Cyclin B1 = test: Western blot analysis of cyclin B1 levels; details: DU145, 24 hour treatment, then ALLN 4 or 8 hours

## CC1=CC(O/C=C2\Cc3c(n(C)c4ccccc34)C2=O)OC1=O (racemic) [EG-5, (±) (2E)-4-methyl-2-(4-methyl-5-oxo-2,5-dihydrofuran-2-yloxymethylene)-1,4-dihydro-2H-cyclopenta[b]indol-3-one]
MCF-7 mammospheres; 5 ppm and above
  Mammosphere formation: completely block mammosphere formation
MDA-MB-231; MDA-MB-231, 10 ppm
  Cell Cycle Distribution G1: 34.74%
  Cell Cycle Distribution G2: 35.70%
  Cell Cycle Distribution S: 14.59%
  SubG1/Apoptosis: 11.32
BJ fibroblast; 10 ppm
  Cell Cycle Distribution G1: 82.29%
  Cell Cycle Distribution G2: 10.50%
  Cell Cycle Distribution S: 4.480%
  SubG1/Apoptosis: 0.49

## CC1=CC(O/C=C2/C(=O)c3c(c4cc(-c5scc6c5OCCO6)ccc4n3C)C2C)OC1=O (stereo not shown) [ST-362, (2E)-2-[(2,5-dihydro-4-methyl-5-oxofuran-2-yloxy)methylene]-1,2-dihydro-7-(2,3-dihydrothieno[3,4-b][1,4]dioxin-7-yl)-1,4-dimethyl-cyclopenta[b]indole-3-(4H)-one]
Cyclin B1
  Partial rescue of Cyclin B1 levels by ALLN: 2 fold
MCF-7 mammospheres; 1 ppm, p<0.01
  Mammosphere formation: significantly inhibit mammosphere formation
MCF-7 mammospheres; 2.5 ppm
  Mammosphere growth: block mammosphere growth
MCF-7 mammospheres; 5 ppm and above
  Mammosphere formation: completely block mammosphere formation
MCF-7 mammospheres
  Dose to block/inhibit mammosphere formation, fold lower than for monolayer growth: 5 fold
MDA-MB-231; MDA-MB-231, 5 ppm
  Cell Cycle Distribution G1: 42.17%
  Cell Cycle Distribution G2: 37.93%
  Cell Cycle Distribution S: 11.90%
  SubG1/Apoptosis: 4.17
BJ fibroblast; 5 ppm
  Cell Cycle Distribution G1: 83.42%
  Cell Cycle Distribution G2: 12.86%
  Cell Cycle Distribution S: 1.580%
  SubG1/Apoptosis: 0.72

## CC1=CC(O/C=C2\Cc3c(n(C)c4cc(-c5cccs5)ccc34)C2=O)OC1=O (racemic) [MEB-55, (±) 2E-4-methyl-2-(4-methyl-5-oxo-2,5-dihydrofuran-2-yloxymethylene)-6-thiophen-2-yl-1,4-dihydro-2H-cyclopenta[b]indol-3-one]
Cyclin B1
  Partial rescue of Cyclin B1 levels by ALLN: 1.3 fold
MCF-7 mammospheres; 1 ppm, p<0.01
  Mammosphere formation: significantly inhibit mammosphere formation
MCF-7 mammospheres; 2.5 ppm
  Mammosphere growth: block mammosphere growth
MCF-7 mammospheres; 5 ppm and above
  Mammosphere formation: completely block mammosphere formation
MCF-7 mammospheres
  Dose to block/inhibit mammosphere formation, fold lower than for monolayer growth: 5 fold
MDA-MB-231; MDA-MB-231, 5 ppm
  Cell Cycle Distribution G1: 49.61%
  Cell Cycle Distribution G2: 28.33%
  Cell Cycle Distribution S: 14.51%
  SubG1/Apoptosis: 3.88
BJ fibroblast; 5 ppm
  Cell Cycle Distribution G1: 78.96%
  Cell Cycle Distribution G2: 11.54%
  Cell Cycle Distribution S: 5.930%
  SubG1/Apoptosis: 0.57

## CC1=CC(O/C=C2/C(=O)c3c(c4cc(-c5cccs5)ccc4n3C)C2C)OC1=O (stereo not shown) [ST-357, (2E)-1,4-dimethyl-2-((4-methyl-5-oxo-2,5-dihydrofuran-2-yloxy)methylene)-7-(thiophen-2-yl)-1,2-dihydrocyclopenta[b]indol-3(4H)-one]
MCF-7 mammospheres; 1 ppm, p<0.01
  Mammosphere formation: significantly inhibit mammosphere formation
MCF-7 mammospheres; 2.5 ppm
  Mammosphere growth: significant reduction in mammosphere growth
MCF-7 mammospheres; 5 ppm and above
  Mammosphere formation: completely block mammosphere formation
MCF-7 mammospheres
  Dose to block/inhibit mammosphere formation, fold lower than for monolayer growth: 3 fold

## CC1=C[C@H](O/C=C2/C(=O)O[C@@H]3c4ccccc4C[C@H]23)OC1=O (relative stereo) [GR-24, (3aR*,8bS*,E)-3-(((R*)-4-methyl-5-oxo-2,5-dihydrofuran-2-yloxy)methylene)-3,3a,4,8b-tetrahydro-2H-indeno[1,2-b]furan-2-one]
MCF-7 mammospheres; 0.5 ppm, p<0.05
  Mammosphere growth: inhibited to a lesser degree
MCF-7 mammospheres; 1 ppm, p<0.01
  Mammosphere formation: severely attenuated
MCF-7 mammospheres
  Dose to block/inhibit mammosphere formation, fold lower than for monolayer growth: 5.7 fold
MDA-MB-231; 10 ppm
  Increase in the sub-G1/apoptotic fraction compared to vehicle: 4.6 fold

— patent publication US10208007B2, “Use of strigolactones and strigolactone analogs for treating proliferative conditions” (The State of Israel, Ministry of Agriculture & Rural …, priority 2011, dated 2019)
